Assay results: ChEMBL document CHEMBL5604063, “ASAP - DENV-2 NS2B-NS3 protease fluorescence dose response” (2024)
“And” between values parts separate entries of the source, which are not always exact repeats. Equal values may be shown once.

How the values were obtained:
Genome polyprotein [1] = target: T1, Genome polyprotein (dengue virus type 2, UniProt P29990); type: functional, Thailand/16681/1984
Genome polyprotein [2] = target: T1, Genome polyprotein; type: functional, Thailand/16681/1984; remark: listed apart in the source

T1 sequence (P29990 1346-1475 limits assumed): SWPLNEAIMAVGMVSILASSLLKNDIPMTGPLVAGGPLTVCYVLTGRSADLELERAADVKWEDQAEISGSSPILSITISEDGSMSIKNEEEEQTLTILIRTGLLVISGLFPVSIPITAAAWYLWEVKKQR
T1 sequence (P29990 1476-2093 limits assumed): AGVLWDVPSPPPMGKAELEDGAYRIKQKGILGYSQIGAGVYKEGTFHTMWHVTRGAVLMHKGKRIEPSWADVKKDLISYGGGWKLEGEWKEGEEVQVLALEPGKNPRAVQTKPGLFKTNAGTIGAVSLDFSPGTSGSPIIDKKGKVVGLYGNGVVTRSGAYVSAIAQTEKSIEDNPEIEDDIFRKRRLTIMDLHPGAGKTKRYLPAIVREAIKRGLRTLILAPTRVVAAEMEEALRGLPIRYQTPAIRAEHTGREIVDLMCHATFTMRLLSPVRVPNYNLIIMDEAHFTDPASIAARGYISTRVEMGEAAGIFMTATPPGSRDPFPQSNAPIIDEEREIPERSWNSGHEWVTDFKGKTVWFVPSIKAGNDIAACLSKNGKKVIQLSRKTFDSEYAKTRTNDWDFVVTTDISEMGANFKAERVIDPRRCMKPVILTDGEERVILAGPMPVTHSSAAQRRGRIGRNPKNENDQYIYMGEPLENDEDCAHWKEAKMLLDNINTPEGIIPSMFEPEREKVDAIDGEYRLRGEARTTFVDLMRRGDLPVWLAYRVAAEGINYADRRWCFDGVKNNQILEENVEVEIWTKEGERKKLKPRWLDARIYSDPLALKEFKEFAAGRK

SMILES | IC50 (Genome polyprotein [1]) | IC50 (Genome polyprotein [2])
COc1cc(Br)cc(C(=O)Nc2ccc3c(c2)CNC3)c1 | > 99.5 µM | > 100 µM
O=C(Nc1ccc2c(c1)CNC2)c1ccc2c(c1)NCCO2 | > 99.5 µM | > 100 µM
C[C@@H](N)c1ccc(NC(=O)c2cc(Cl)cc3[nH]ncc23)cc1 | > 99.5 µM | > 100 µM
O=C1NCc2c1cccc2C(=O)Nc1ccc2c(c1)CNC2 | > 99.5 µM | > 100 µM
CCCN1C(=O)[C@](C#N)(Nc2cccc(-c3nn[nH]n3)c2)c2cc(Cl)ccc21 | > 99.5 µM | > 100 µM
NCc1ccc(NC(=O)c2cc(Cl)cc3[nH]ncc23)cc1F | > 99.5 µM | > 100 µM
CN(C(=O)c1cc(Cl)cc2[nH]ncc12)c1ccc2c(c1)CNC2 | > 99.5 µM | > 100 µM
O=C(Nc1ccc2c(c1)CNC2)c1ccccc1-n1cccc1 | > 99.5 µM | > 100 µM
O=C(Nc1ccc2c(c1)CNC2)c1ccn[nH]1 | > 99.5 µM | > 100 µM
O=c1[nH]c2cc(Cl)ccc2n1Cc1ccc(-c2nn[nH]n2)cc1 | > 99.5 µM | > 100 µM
O=C(Nc1ccc2c(c1)CNC2)c1cnnc2ccccc12 | > 99.5 µM | > 100 µM
O=C(Nc1ccc2c(c1)CNC2)C1CCCCC1 | > 99.5 µM | > 100 µM
C[C@H]1NCCc2c(-c3ccc4[nH]c(C(=O)O)cc4c3)cc(F)cc21 | > 99.5 µM | > 100 µM
CCOC(=O)N1CCC[C@H]1c1cccc(-c2ccc3[nH]c(C(=O)O)cc3c2)c1 | > 99.5 µM | > 100 µM
CNC(=O)[C@H](Nc1ccc2c(c1)CNC2)c1cccc2[nH]ncc12 | 81.3 µM | > 100 µM
FC(F)(F)Oc1cc(Cl)cc2c(Cc3ccc(-c4nnn[nH]4)cc3)c[nH]c12 | 12.6 µM | 7.84 µM
O=C(Nc1ccc2c(c1)CNC2)c1ncnc2sccc12 | > 99.5 µM | > 100 µM
O=C(Nc1cc(Cl)cc(-c2ccc(C3(C(=O)O)CCNCC3)cc2)c1)OCc1ccccc1 | > 99.5 µM | > 100 µM
N[C@H]1CCc2ccc(NC(=O)c3cc(Cl)cc4[nH]ncc34)cc21 | > 99.5 µM | > 100 µM
CCCN1C(=O)[C@](C#N)(Nc2ccc3c(c2)CNC3)c2ccccc21 | > 99.5 µM | > 100 µM
O=C1Cc2c(cccc2C(=O)Nc2ccc3c(c2)CNC3)N1 | 11.8 µM and 17.4 µM and 20.7 µM | 45.6 µM and 19.1 µM
CNCc1ccc(NC(=O)c2cc(Cl)cc3[nH]ncc23)cc1 | > 99.5 µM | > 100 µM

SMILES | IC50 (Genome polyprotein [1]) | IC50 (Genome polyprotein [2])
O=C(Nc1ccc2c(c1)CNCCC2)c1cc(Cl)cc2[nH]ncc12 | 42.5 µM | 62.4 µM and 45.8 µM
O=C(Nc1ccc2c(c1)CNC2)c1cncc(-c2ccccc2)c1 | > 99.5 µM | > 100 µM
O=C(O)C1CCC2(CC1)CC(Cc1c[nH]c3ccc(Cl)cc13)C2 (centres undefined) | 59.2 µM | 31.4 µM
Cc1cc(-c2ccc3[nH]c(C(=O)O)cc3c2)c(=O)n(Cc2ccccc2)c1 | > 99.5 µM | > 100 µM
O=C(O)c1ccc2nc(Cc3c[nH]c4ccc(Cl)cc34)cn2c1 | > 99.5 µM | > 100 µM
N#Cc1ccc2[nH]cc(Cc3ccc(-c4nnn[nH]4)cc3)c2c1 | > 99.5 µM | 83.8 µM
Cn1ccc(-c2cc(CN)cc([C@@H]3C[C@H]3c3cc(Cl)cc(NC(=O)OCc4ccccc4)c3)c2)n1 | 62.7 µM | > 100 µM
O=C(Nc1ccc2c(c1)CNC2)c1c[nH]c2ncc(F)cc12 | > 99.5 µM | > 100 µM
O=C(O)Cc1cc2c(c(Cc3c[nH]c4ccc(Cl)cc34)c1)OCC2 | > 99.5 µM | > 100 µM
CCOCCCN1Cc2ccc(NC(=O)c3cc(Cl)cc4[nH]ncc34)cc2C1 | > 99.5 µM | > 100 µM
O=C(c1cc(Cl)cc2[nH]ncc12)N1C[C@H]2CNC[C@H]2C1 | > 99.5 µM | > 100 µM
Cn1nc(C(=O)Nc2ccc3c(c2)CNC3)c2cc(Br)ccc21 | 89.7 µM | > 100 µM
O=C(Nc1ccc2c(c1)COC2)c1cc(Cl)cc2[nH]ncc12 | > 99.5 µM | > 100 µM
O=C(Nc1ccc2c(c1)CN(CC(F)F)C2)c1cc(Cl)cc2[nH]ncc12 | 58.7 µM | > 100 µM
O=C(Nc1ccc2c(c1)CNC2)c1cc(C(F)(F)F)cc2[nH]ccc12 | > 99.5 µM | > 100 µM
CNC(=O)[C@H](Nc1ccc2c(c1)CNC2)c1cc(Cl)cc2[nH]ncc12 | > 99.5 µM | > 100 µM
NCc1cc(NC(=O)c2cc(Cl)cc(NC(=O)OCc3ccccc3)c2)cc(C2=CC[C@H](C(=O)O)C2)c1 | > 99.5 µM | > 100 µM
NCc1ccc(NC(=O)c2cc(Cl)cc3[nH]ncc23)cc1 | > 99.5 µM | > 100 µM
NCc1cc(NC(=O)c2cc(Cl)cc(NC(=O)OCc3ccccc3)c2)cc(-c2ccc3c(c2)C[C@H](C(=O)O)CO3)c1 | 77.2 µM | > 100 µM
O=C(Nc1ccc2c(c1)CCCN2)c1cc(Cl)cc2[nH]ncc12 | > 99.5 µM | > 100 µM
O=C(O)c1cc2cc(-c3cccc([C@H]4CCOC4)n3)ccc2[nH]1 | > 99.5 µM | > 100 µM
O=C(Nc1ccc2c(c1)CNC2)c1cc(=O)[nH]c2c(F)cccc12 | > 99.5 µM | > 100 µM

SMILES | IC50 (Genome polyprotein [1]) | IC50 (Genome polyprotein [2])
NCc1cccc([C@@H]2[C@H](C(=O)O)[C@H]2c2cc(N)cc(Cl)c2)c1 | > 99.5 µM | > 100 µM
NCCc1cccc(NC(=O)c2cc(Cl)cc3[nH]ncc23)c1 | > 99.5 µM | > 100 µM
O=C(Nc1ccc2c(c1)[C@H]1CC[C@H]2N1)c1cc(Cl)cc2[nH]ncc12 | > 99.5 µM | > 100 µM
O=C(NCc1ccc2c(c1)CNC2)c1cc(Cl)cc2[nH]ncc12 | > 99.5 µM | > 100 µM
O=C(Nc1ccc2c(c1)CCNCC2)c1cc(Cl)cc2[nH]ncc12 | 47.5 µM | > 100 µM
O=C(c1cc(Cl)cc2[nH]ncc12)N1CC[C@]2(CCNC2)C1 | > 99.5 µM | > 100 µM
O=C(NCC1CCNCC1)c1cc(Cl)cc2[nH]ncc12 | > 99.5 µM | > 100 µM
O=C(Nc1ccc2c(c1)CNC2)c1cc(Br)cc2[nH]ncc12 | > 99.5 µM | > 100 µM
COC(=O)c1ccc2[nH]cc(Cc3ccc(-c4nnn[nH]4)cc3)c2c1 | > 99.5 µM | 72.4 µM
O=C(c1cc(Cl)cc2[nH]ncc12)N1CCC(C2CCNCC2)CC1 | > 99.5 µM | > 100 µM
O=C1NCc2ccc(NC(=O)c3cc(Cl)cc4[nH]ncc34)cc21 | > 99.5 µM | > 100 µM
CNC(=O)[C@]1(Nc2ccc3c(c2)CNC3)C(=O)Nc2c(OC)cc(Br)cc21 | > 99.5 µM | > 100 µM
O=C(Nc1ccc2c(n1)CNC2)c1cc(Cl)cc2[nH]ncc12 | > 99.5 µM | > 100 µM
Cc1ccc(NC(=O)c2cc(Cl)cc3[nH]ncc23)cc1CN | > 99.5 µM | > 100 µM
CC(=O)Nc1cc(Br)cc(C(=O)Nc2ccc3c(c2)CNC3)c1 | > 99.5 µM | > 100 µM
O=C(O)c1ccc(NC(=O)c2cc(Cl)cc3[nH]ncc23)cc1 | > 99.5 µM | > 100 µM
N#C[C@H](Nc1cc(Cl)cc(C2CC2)c1)c1ccc(-c2nn[nH]n2)cc1 | 27.2 µM | 17.9 µM
Cc1ccc(NC(=O)c2cc(Cl)cc3[nH]ncc23)cc1N | > 99.5 µM | > 100 µM
NC[C@H]1CC[C@H](NC(=O)c2cc(Cl)cc3[nH]ncc23)CC1 | > 99.5 µM | > 100 µM
O=C(Nc1ccc2c(c1)CNC2)c1cc(Br)cc2cccnc12 | > 99.5 µM | > 100 µM
O=C(Nc1ccc2c(c1)CN(C(=O)C(F)(F)F)C2)c1cc(Cl)cc2[nH]ncc12 | > 99.5 µM | > 100 µM
O=C(Nc1ccc2c(c1)CNC2)c1ccc(OCC(F)(F)F)nc1 | > 99.5 µM | > 100 µM

SMILES | IC50 (Genome polyprotein [1]) | IC50 (Genome polyprotein [2])
O=C(O)Cc1cn2nc(-c3cc(Cl)cc(NC(=O)OCc4ccccc4)c3)ccc2n1 | > 99.5 µM | > 100 µM
Nc1nccc(C(=O)Nc2ccc3c(c2)CNC3)n1 | > 99.5 µM | > 100 µM
O=C(Nc1cc(Cl)cc(-c2cc(C(=O)O)n(-c3ccc(F)cc3)n2)c1)OCc1ccccc1 | 17.5 µM | 10.6 µM
N[C@H]1CCCc2ccc(NC(=O)c3cc(Cl)cc4[nH]ncc34)cc21 | > 99.5 µM | > 100 µM
N[C@H]1Cc2ccc(NC(=O)c3cc(Cl)cc4[nH]ncc34)cc2C1 | > 99.5 µM | > 100 µM
CCc1nc2ccc(Cl)cc2n1Cc1ccc2c(c1)CNC2 | > 99.5 µM | > 100 µM
CNCc1cccc(NC(=O)c2cc(Cl)cc3[nH]ncc23)c1 | 73.3 µM | > 100 µM
Cc1ncc(Br)cc1C(=O)Nc1ccc2c(c1)CNC2 | > 99.5 µM | > 100 µM
CC(C)(C)c1[nH]c2ccc(F)cc2c1Cc1ccc(-c2nnn[nH]2)cc1 | 23.6 µM | 12.1 µM
CN1C(=O)[C@H](c2cc(Cl)cc(NC(=O)OCc3ccccc3)c2)N(c2cccc(-c3nn[nH]n3)c2)C1=O | 21.8 µM | 19 µM
O=C(O)Cn1nc2ccc(-c3cc(Cl)cc(NC(=O)OCc4ccccc4)c3)nn2c1=O | > 99.5 µM | > 100 µM
CCNCc1ccc(NC(=O)c2cc(Cl)cc3[nH]ncc23)cc1 | > 99.5 µM | > 100 µM
Cc1ccc(Oc2ncccc2C#N)c(-c2ccc3[nH]c(C(=O)O)cc3c2)c1 | 87.2 µM | > 100 µM
O=C(Nc1ccc2c(c1)CNC2)c1cncc(N2CCOCC2)c1 | > 99.5 µM | > 100 µM
N#Cc1cc(C(=O)Nc2ccc3c(c2)CNC3)cc(C(F)(F)F)c1 | > 99.5 µM | > 100 µM
Cc1cc(C#N)cc2c(Cc3ccc(-c4nnn[nH]4)cc3)c[nH]c12 | 74.3 µM | 35 µM
COc1nnc(C(F)(F)F)cc1-c1ccc2[nH]c(C(=O)O)cc2c1 | > 99.5 µM | > 100 µM
CCc1nccn1CC(=O)Nc1ccc2c(c1)CNC2 | > 99.5 µM | > 100 µM
COCCCN1Cc2ccc(NC(=O)c3cc(Cl)cc4[nH]ncc34)cc2C1 | > 99.5 µM | > 100 µM
O=C(CSc1cccc(Br)c1)Nc1ccc2c(c1)CNC2 | > 99.5 µM | > 100 µM
NC(=O)c1[nH]c2ccc(Br)cc2c1Cc1ccc(-c2nnn[nH]2)cc1 | 54.7 µM | 26.8 µM
